# Measurements taken from patent US8859783B2, “Indirubin-3′-oxime derivatives as potent cyclin dependent kinase inhibitors” (Anygen Co., Ltd., priority 2010, dated 2014).
# Entries after “also recorded” stand apart in the source; their conditions may differ.
# Tests used:
# [1] = test system: A549 human lung cancer cell; experiment: SRB cell proliferation assay, A549; assay type: cell-based; conditions: A549, 72 h, 3 days
# Protocol: (§1) ^a A series of indirubin derivatives were tested at five concentrations for their effects on various human cancer cell lines using SRB assay, as described in the Experimental Section.
# (§2) Cells (A549, HT1080, HCT116, K562, SNU638, KB, MCF-7) were counted, diluted to 5×10^4 cells/mL with fresh medium (MEME, DMEM or RPMI containing 10% FBS), and added 190 μL of cell suspension to 96-well plates containing various concentrations of test compounds (10 μL in 10% aqueous DMSO). Test plates were incubated for 3 days at 37° C. in CO2 incubator. For zero day controls, cells were incubated for 30 min at 37° C. in CO2 incubator. All treatments were performed in triplicate. After the incubation periods, cells were fixed with 50 μL of cold 50% TCA at 4° C. for 30 min, washed 5 times with tap water, and air-dried. The fixed cells were stained with 0.4% SRB solution in 1% aqueous acetic acid at room temperature for 1 h. Free SRB solution was then removed by rinsing 5 times with 1% acetic acid, and air-dried. The bound dye was dissolved with 200 µL of 10 mM Tris-base (pH 10.0), and absorbance was determined at 515 nm using an ELISA microplate reader. Finally, the absorbance values obtained with each of the treatment procedures were averaged, and the average values obtained with the zero day control were subtracted.
# [2] = test system: HT1080 human fibro sarcoma cell; experiment: SRB cell proliferation assay, HT1080; assay type: cell-based; conditions: HT-1080, 72 h, 3 days
# Protocol: as §1, §2
# [3] = test system: HCT116 human colon cancer cell; experiment: SRB cell proliferation assay, HCT116; assay type: cell-based; conditions: 3 days
# Protocol: as §1, §2
# [4] = test system: K562 human leukemia cell; experiment: SRB cell proliferation assay, K562; assay type: cell-based; conditions: K562, 72 h, 3 days
# Protocol: as §1, §2
# [5] = test system: SNU638 human stomach cancer cell; experiment: SRB cell proliferation assay, SNU638; assay type: cell-based; conditions: SNU-638, 72 h, 3 days
# Protocol: as §1, §2
# [6] = test system: KB human nasopharyngeal cancer cell; experiment: SRB cell proliferation assay, KB; assay type: cell-based; conditions: 72 h, 3 days
# Protocol: as §1, §2
# [7] = test system: MCF-7 human breast cancer cell; experiment: SRB cell proliferation assay, MCF-7; assay type: cell-based; conditions: MCF7, 72 h, 3 days
# Protocol: as §1, §2
# [8] = test system: CDK1; conditions: from a report; read-out: CDK1 inhibitory activity IC50; cited from earlier work
# [9] = molecular target: T1, CDK2/cyclin E (Homo sapiens, UniProt P24941); experiment: CDK2/cyclin E kinase assay; assay type: biochemical; conditions: ten concentrations, dose response curves; read-out: CDK2/cyclin E inhibitory activity IC50
# T1 construct: purchased Milipore (Billerica, Mass.)
# Protocol: CDK1/cyclin B, CDK2/cyclin E were purchased from Milipore (Billerica, Mass.). The kinase activity was tested in buffer (8 mM MOPS pH 7.0, 0.2 mM EDTA, 10 mM MgAcetate), with 0.1 mg/mL histone H1, in the presence of 45 µM [—^33P] ATP (500 cpm/pmol) for CDK1 or 120 μM [γ—^33P] ATP (500 cpm/pmol) for CDK2 in a final reaction volume of […]. The reaction was initiated by the addition of the MgATP mix. After incubation for 40 min at 30° C., the reaction was stopped by the addition of 5 μL of 3% phosphoric acid solution. 10 μL aliquots of supernatant were spotted onto 2.5 cm×3 cm pieces of Whatman […] phosphocellulose paper, and 20 s later, the filters were washed three times for 5 min in 75 mM phosphoric acid and once in methanol prior to drying. The […] filters were counted in the presence of 1 mL of ACS (Amersham) scintillation fluid. The activities are usually expressed as a percentage of the maximal activity, i.e., in the absence of inhibitors. Controls were applied with appropriate dilutions of DMSO.
# [10] = molecular target: CDK1/cyclin B (Homo sapiens, UniProt P06493); experiment: CDK1/cyclin B kinase assay; assay type: biochemical; conditions: read-out: IC50 in CDK1/cycline B kinase assay
# CDK1/cyclin B, sequence (P06493 whole entry): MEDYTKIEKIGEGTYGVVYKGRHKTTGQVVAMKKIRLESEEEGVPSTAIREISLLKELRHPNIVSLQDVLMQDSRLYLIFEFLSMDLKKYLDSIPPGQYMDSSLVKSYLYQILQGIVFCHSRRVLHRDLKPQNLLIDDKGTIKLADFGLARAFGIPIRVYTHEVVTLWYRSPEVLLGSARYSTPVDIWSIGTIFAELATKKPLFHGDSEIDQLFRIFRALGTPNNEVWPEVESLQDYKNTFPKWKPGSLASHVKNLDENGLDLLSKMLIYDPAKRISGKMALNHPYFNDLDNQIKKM
# CDK1/cyclin B, sequence (P14635 whole entry partner): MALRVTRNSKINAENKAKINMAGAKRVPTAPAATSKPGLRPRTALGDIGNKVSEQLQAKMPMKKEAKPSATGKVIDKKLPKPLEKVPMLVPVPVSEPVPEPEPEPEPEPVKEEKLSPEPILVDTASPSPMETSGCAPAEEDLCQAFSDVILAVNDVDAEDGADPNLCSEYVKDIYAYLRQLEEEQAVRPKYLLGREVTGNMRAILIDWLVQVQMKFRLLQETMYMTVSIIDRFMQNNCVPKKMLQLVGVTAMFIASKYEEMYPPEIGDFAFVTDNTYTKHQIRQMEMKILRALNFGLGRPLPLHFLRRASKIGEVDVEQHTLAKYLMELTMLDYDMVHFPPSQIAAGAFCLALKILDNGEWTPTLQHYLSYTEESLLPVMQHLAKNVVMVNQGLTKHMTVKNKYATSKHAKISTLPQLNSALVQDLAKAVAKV
# Excerpt: The reaction was initiated by the addition of the MgATP mix.
# [11] = molecular target: T2, IKKβ (Homo sapiens, UniProt O14920); experiment: HTRF kinase assay, IKKβ; assay type: biochemical; conditions: dose response curves; read-out: IC50 against IKKβ
# T2 construct: Recombinant proteins containing kinase domain were purchased from Millipore (Billerica, Mass.); purchased Millipore (Billerica, Mass.)
# T2 sequence (O14920 15-300 limits assumed): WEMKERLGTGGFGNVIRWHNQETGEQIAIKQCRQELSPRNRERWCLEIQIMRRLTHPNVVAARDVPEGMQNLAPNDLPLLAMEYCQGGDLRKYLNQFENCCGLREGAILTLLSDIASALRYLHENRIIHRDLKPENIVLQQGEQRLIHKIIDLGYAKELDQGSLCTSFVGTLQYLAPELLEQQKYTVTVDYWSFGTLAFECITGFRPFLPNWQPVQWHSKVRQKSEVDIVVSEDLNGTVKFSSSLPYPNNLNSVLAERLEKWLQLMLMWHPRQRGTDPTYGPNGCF
# Protocol: (§3) Inhibition of kinase activity against a variety of recombinant kinases (c-Met, Met M1250T, Ron, VEGF2, EGFR, TrkA, PI3Kγ, IKKβ Insulin receptor, Aurora A) was measured using homogeneous time-resolved fluorescence (HTRF) assays. Briefly, assays are based on the phosphorylation of peptide substrates in the presence of ATP. Resulting phosphorylated substrates are detected by TR-FRET (Time Resolved-Fluorescence Resonance Energy Transfer) signal. Recombinant proteins containing kinase domain were purchased from Millipore (Billerica, Mass.). Optimal enzyme, ATP, and substrate concentrations were established for each enzyme using HTRF KinEASE kit (Cisbio) according to the manufacturer's instruction. Assays are consisted of enzymes mixed with serially diluted compounds and peptide substrates in kinase reaction buffer (250 mM HEPES (pH 7.0), 0.5 mM orthovanadate, 0.05% BSA, 0.1% NaN3). Following the addition of reagents for detection, TR-FRET signal was measured using EnVision multi-label reader (Perkin Elmer, Waltham, Mass.).
# [12] = molecular target: T3, TrkA (Homo sapiens, UniProt P04629); experiment: HTRF kinase assay, TrkA; assay type: biochemical
# T3 construct: Recombinant proteins containing kinase domain were purchased from Millipore (Billerica, Mass.); purchased Millipore (Billerica, Mass.)
# T3 sequence (P04629 510-781 limits assumed): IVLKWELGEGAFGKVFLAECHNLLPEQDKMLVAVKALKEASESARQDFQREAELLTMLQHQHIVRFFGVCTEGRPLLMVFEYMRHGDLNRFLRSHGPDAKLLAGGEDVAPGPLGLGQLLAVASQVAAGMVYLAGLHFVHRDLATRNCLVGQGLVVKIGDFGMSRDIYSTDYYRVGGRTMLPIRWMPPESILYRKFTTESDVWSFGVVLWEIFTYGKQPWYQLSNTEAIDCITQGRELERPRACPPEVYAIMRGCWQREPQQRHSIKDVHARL
# Protocol: as §3
# [13] = test system: T4, c-Met, Met M1250T, Ron, VEGF2, EGFR, TrkA, PI3Kγ, IKKβ Insulin receptor, Aurora A; experiment: Kinase panel screening (HTRF); assay type: biochemical; conditions: 10 μM
# T4 construct: other: 10 μM
# Protocol: as §3
# [14] = test system: several human cancer cell lines; experiment: SRB cell proliferation assay, summary over cell lines; assay type: cell-based; conditions: Homo sapiens, range over cell lines; read-out: anti-proliferative IC50, range over cancer cell lines
# Protocol: as §1, §2
# [15] = Tumor xenograft animal model, body weight; assay type: in vivo, SD rats; conditions: 5 mg/kg i.v. every other day, five times
# Excerpt: The k-ras-transformed rat kidney epithelial cell line (RK3E-ras) were maintained in DMEM supplemented with 10% FCS, 100 units/mL penicillin, and 100 Ag/mL streptomycin. RK3E-ras cells were kindly provided by Dr. Eric Fearon (University of Michigan Medical School, Ann Arbor, Mich.) and have been described in the previous report. Male SD rats (6 weeks of age) were used to examine the inhibition of tumor growth in vivo. RK3E-ras-Luc cells (5×10^6) were implanted subcutaneously into the flank of the rats on Day 0, and rats were grouped randomly (5 […]/group) on Day 5 as previously described. […] The animals were sacrificed 48 hr after the final administration, and rat weights and tumor volumes were measured. The tumor growth volumes were calculated as follows: V=(ab^2)/2, where, a is the longest diameter and b is the shortest diameter of the tumor. All experiments were conducted under protocols approved by the Animal Care and Use Committee at Chosun University School of Dentistry (Gwangju, South Korea).
# [16] = test system: RK3E-ras-Luc cells; experiment: In vivo bioluminescence imaging assay; parameters: species or system SD rats; conditions: day 10 after treatment, 5 mg/kg i.v.
# Excerpt: For bioluminescence imaging, the rats received an i.p. injection of luciferin (Molecular Probes, Palo Alto, Calif.) with Rumpun/ketamine (1:1) anesthesia. The rats were imaged using a LAS-1000 plus imaging System (Fuji film. Tokyo. Japan) to record the bioluminescent signal emitted from the tumor. The LAS-1000 system equipped with a CCD camera was used for acquisition of the emitted light, and Living Image software (Multi Gauge v3.0) was used for data analysis.
# [17] = test system: RK3E-ras-Luc cells; experiment: Histology (H&E) of tumor tissue; assay type: in vivo, SD rats; conditions: 5 mg/kg i.v.
# Protocol: (§4) The excised solid tumors were fixed in 10% buffered formalin and embeddedin paraffin. For optical microscopic examinations, 4-μm sectioned tissues were stained with H&E. Immunohistochemical staining was performed with the avidin-biotin complex method using anti-PCNA antibodies. The immune reactions were visualized with 3,3′-diaminobenzidine and counterstained with Mayer's hematoxylin. A TUNEL assay was performed using an ApopTag PlusPeroxidase In Situ Apoptosis Detection kit (Intergen, Purchase, N.Y.) according to the manufacturer's instructions. Briefly, the slides were deparaffinized and treated with 20 μg/mL proteinase K at 37° C. for 15 min to enhance staining. After immersion 3% hydrogen peroxide to block the endogenous peroxidase, the slides were incubated with a reaction buffer containing terminal de-oxynucleotidyl transferase at 37° C. for 1 h. The slides were then incubated with a peroxidase-conjugated anti-digoxigenin antibody for 30 min, and the reaction products were visualized with a 0.03% 3,3′-diaminobenzidine solution containing 2 mM hydrogen peroxide. The slides were counterstained with 0.5% methyl green.
# [18] = test system: RK3E-ras-Luc cells; experiment: TUNEL assay on tumor sections; assay type: in vivo, SD rats; conditions: 5 mg/kg i.v.
# Protocol: as §4
# [19] = test system: PCNA; experiment: Immunohistochemical staining for PCNA in tumor; assay type: in vivo, SD rats; conditions: 5 mg/kg i.v.
# Protocol: as §4
compound,measurement,setting,value
"O=C1Nc2ccc([N+](=O)[O-])cc2C1=C1Nc2ccc(Br)cc2C1=NO [Compound 2, 5′-Bromo-5-nitro-indirubin-3′-oxime, reference compound]",IC50,[1],16900 nM
same,IC50,[2],1450 nM
same,IC50,"[3]; Homo sapiens, HCT-116, 72 h",450 nM
same,IC50,[4],770 nM
same,IC50,[5],1140 nM
same,IC50,[6],1160 nM
same,IC50,[7],950 nM
same,IC50,[8],190 nM
"O=C1Nc2ccc([N+](=O)[O-])cc2/C1=C1/Nc2ccc(O)cc2C1=NO [Compound 11b, (2′Z, 3′E)-5′-Hydroxy-5-nitro-indirubin-3′-oxime]",IC50,[9],1.91 nM
same,IC50,[10],13 nM
same,IC50,[11],10000 nM
same,inhibition at 1 µM,"[12]; 1 μM, read-out: inhibitory activity against TrkA",9%
same,IC50,"[12]; dose response curves, read-out: IC50 against TrkA",4000 nM
same,inhibitory activity against kinase panel,[13],"weak inhibitory activity only against Aurora A, IKKβ and TrkA"
same,IC50,[6],1300 nM
same,IC50,[7],1200 nM
same,IC50,[14],200 to 3300 nM
same,body weight compared with control,[15],without loss of body weight; also recorded: no significant difference in body weight
same,luminescence intensity (indicator of tumor growth),[16],significantly decreased
same,histological analysis of treated tumor,[17],extensive cell death
same,TUNEL-positive apoptotic cells compared with control tissue,[18],about 6.0 fold
same,expression level of PCNA compared with control,[19],decreased
"O=C1Nc2ccc([N+](=O)[O-])cc2/C1=C1/Nc2ccc(Cl)cc2C1=NO [Compound 12b, (2′Z, 3′E)-5′-Chloro-5-nitro-indirubin-3′-oxime]",IC50,[9],23.5 nM
same,inhibitory activity against kinase panel,[13],negligible inhibitory activities
same,IC50,[1],15600 nM
same,IC50,[2],1250 nM
same,IC50,[3],330 nM
same,IC50,"[3]; Homo sapiens, HCT-116, 72 h",~300 nM
same,IC50,[4],560 nM
same,IC50,[5],1160 nM
same,IC50,[6],1100 nM
same,IC50,[7],500 nM
